Results taken from US6011052A, “Pyrazolone derivatives as MCP-1 antagonists” (Warner-Lambert Company, priority 1997, dated 2000).

Key:
[1] = target: T1, MCP-1 receptor (Homo sapiens, UniProt P41597); assay: MCP-1 binding assay (125I-labeled MCP-1, THP-1 cell membranes); conditions: for inhibition at 10 µM: printed in the IC50 μM column, read-out: Inhibition of MCP-1 Binding, percent @ 10 μM; for IC50: THP-1 membranes, 0.2 nM 125I-MCP-1, 30 minutes at room temperature, read-out: Inhibition of MCP-1 Binding IC50
T1 construct: endogenous in cells; host or cells: THP-1 cells (ATCC TIB 202), selected for increased MCP-1 receptor expression
T1 sequence (P41597 1-360 isoform P41597-2): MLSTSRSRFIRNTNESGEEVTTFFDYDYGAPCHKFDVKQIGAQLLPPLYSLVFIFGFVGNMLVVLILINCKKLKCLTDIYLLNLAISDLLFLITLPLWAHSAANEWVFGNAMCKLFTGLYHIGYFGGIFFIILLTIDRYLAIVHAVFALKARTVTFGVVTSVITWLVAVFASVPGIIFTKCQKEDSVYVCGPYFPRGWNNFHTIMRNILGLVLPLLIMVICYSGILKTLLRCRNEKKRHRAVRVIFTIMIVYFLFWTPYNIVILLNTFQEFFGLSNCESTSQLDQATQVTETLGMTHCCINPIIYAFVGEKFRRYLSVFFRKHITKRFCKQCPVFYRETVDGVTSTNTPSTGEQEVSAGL
Experimental: Membranes used in the MCP-1 binding assay were prepared from THP-1 cells (human monocytic cell line source--American Type Culture Collection, Tumor Immunology Bank #202, Rockville, Md., accession no. ATCC TIB 202) selected for increased levels of expression of the MCP-1 receptor. Cells were harvested by centrifugation and washed twice in ice-cold PBS (phosphate-buffered saline) and the cell pellet was frozen at -80° C. in some cases. Cells were resuspended in ice-cold lysis buffer 5 mM HEPES (2-(4N-[2-hydroxyethyl] piperazin-1-yl)-N'-(2-ethanesulfonic acid), pH 7.5, 2 mM EDTA (ethylenediaminetetraacetic acid), 5 ug/ml each leupeptin, aprotinin, chymostatin (protease inhibitors), and 100 ug/ml PMSF (phenylmethane sulfonyl fluoride--also a protease inhibitor)) at a concentration of 5×10^7 cells/ml. The cell suspension was dounced 10-15 times using the B pestle (small pestle of tissue grinder--clearance is 0.07 mm; source--Fisher Scientific) on ice. Nuclei and debris were removed by centrifugation at 500-1000×g for 10 minutes at 4° C. The supernatant was transferred to a fresh tube and centrifuged at 25,000×g for 30 minutes at 4° C. The supernatant was aspirated and the pellet was resuspended in freezing buffer (10 mM HEPES, pH 7.5, 300 mM sucrose, 1 ug/ml each leupeptin, aprotinin, chymostatin, and 10 ug/ml PMSF) using a minihomogenizer until all clumps were resolved. Membranes were aliquoted and frozen at minus 70-85° C. until needed. Typical binding assays used 10-20 ug/well of total membrane protein as determined with a standard protein assay (e.g. BioRad, Richmond, Calif.) or: as determined with a Bradford protein assay (e.g. BioRad, Richmond, Calif.).
For binding, different amounts of membranes were included in the binding reaction along with 0.2 nM I^125 -labeled MCP-1 (Amersham, Arlington Heights, Ill.) with or without unlabeled cold competitor MCP-1 (Peprotech, Rocky Hill, N.J.) (at 500 nM). Binding reactions were performed in a final volume of 100 ul in a binding buffer containing 10 mM HEPES, pH 7.2, 1 mM CaCl2, 5 mM MgCl2, 0.5% BSA (bovine serum albumin). After 30 minutes at room temperature, the binding reactions were filtered through GF/C filters (Whatman glass fiber filters, Type C) or GF/B unifilter plates (Parkard) which had been pre-soaked with 0.3% poly ethyleneimine and washed twice with binding buffer containing 0.5 M NaCl. Filters were dried and counted in a Beta-Plate scintillation counter using standard scintillation fluid. Final concentration of compound in the binding assay ranged from 0.05-100 μM. Compounds were dissolved in DMSO (dimethyl sulfoxide). Final concentrations of DMSO in the binding were kept constant at 0.05%.
IC50s were calculated using a 3-parameter logistic fit. Negative control contained same amount of DMSO vehicle asused in wells containing compound. Positive control contained 500 nM cold competitor MCP-1 in DMSO vehicle.

[2] = test system: CD3-Blast (MCP-1 mediated chemotaxis); assay: MCP-1 mediated CD3-Blast chemotaxis assay (transendothelial migration over ECV304 cells); format: cell-based; conditions: Homo sapiens, ECV-304; for inhibition at 10 µM: range given for multiple replications
Experimental: Recombinant human MCP-1 was obtained from Peprotech (Rockey Hill, N.J.). […] RBCs were removed by hypotonic lysis. […] The cells are expanded and cultured for up to 3 weeks. […] The endothelial cells used for this assay were the endothelial cell line ECV304, obtained from the ECACE (Porton Downs, UK). Endothelial cells were cultured on 6.5 mm diameter Transwell culture inserts (Costar) with a […] pore size. […] Twenty four hours before the assay, 2×10^5 ECV304 cells were plated onto each innert of the 24 well chemotaxis plate and incubated at 37° C. MCP-1 (diluted in assay medium) with or without compounds, was added to the 24-well tissue culture plates in a final volume of […]. […] The cells that had migrated to the bottom chamber were enumerated using flow cytommetry. […] of the cell suspension from the lower chamber was placed in a tube, and relative cell counts were obtained by acquiring events for a set time period of 30 seconds. […] Background migration was determined by counting cells that migrated in the absence of MCP-1 in the lower chamber. This background migration of cells per 30 second count was substrated from the migration to MCP-1 to obtain specific migration. The percent inhibition by compounds of directed migration was determined by the following formula: 1 minus the specific migration in the presence of MCP-1 and compound, divided by the specific migration in the presence of just MCP-1. [drawing 13]

[3] = test system: rat T cells, skin DHR sites; assay: T cell recruitment at sites of cutaneous delayed hypersensitivity (DHR) to KLH in rats; format: in vivo, rat (Lewis); conditions: 24 hours
Experimental: Inbred, approximately 200 gm, male Lewis rats were used in all experiments. Cutaneous delayed hypersensitivity (DHR) was induced as previously described (1). Briefly, rats were sensitized to KLH (keyhole limpet hemocyanis) (Sigma Chemical Co., St. Louis, Mo.) by administering 50 μg KLH in 0.1 ml complete Freund's adjuvant (CFA; Sigma Chemical Co.) into each of 4 subcutaneous sites. After 14 days, DHR was elicited by the challenge of 5 μg KLH in PBS into multiple intradermal sites on the back. Analysis was performed 24 hours after antigen challenge. For each experiment, there were at least three groups of animals of at least four animals in each group. […]
T cell recruitment at sites of DHR was quantified using methods previously described (1-4). […] The cells in the effluent were highly purified (>95%) rat T cells as assessed by anti-rat CD3 (monoclonal antibody KT3, Biosource International, Camarillo, Calif.) immunoreactivity by flow cytometry. […] Skin challenge sites (8 mm in diameter) were counted on a γ counter 24 hours after injection of radiolabeled T cells. Lung, liver, and spleen were also collected and counted as comparative indices for evaluation of input.
Statistical significance was determined using a paired student's t-test. […]

[4] = test system: skin DHR sites; assay: Histologic analysis of skin DHR sites in rats; format: in vivo, rat (Lewis); conditions: 15 mg/kg per os, compared to sensitized animals given vehicle alone
Experimental: Inbred, approximately 200 gm, male Lewis rats were used in all experiments. Cutaneous delayed hypersensitivity (DHR) was induced as previously described (1). Briefly, rats were sensitized to KLH (keyhole limpet hemocyanis) (Sigma Chemical Co., St. Louis, Mo.) by administering 50 μg KLH in 0.1 ml complete Freund's adjuvant (CFA; Sigma Chemical Co.) into each of 4 subcutaneous sites. After 14 days, DHR was elicited by the challenge of 5 μg KLH in PBS into multiple intradermal sites on the back. Analysis was performed 24 hours after antigen challenge. For each experiment, there were at least three groups of animals of at least four animals in each group. One group of nonsensitized, naive animals was used as a negative control and received vehicle alone (consisting of 0.5% hydroxypropylmethylcellulose/0.2% Tween 80 in water) per os at the time of challenge. As positive controls, one group of sensitized animals received vehicle alone per os at the time of KLH challenge. A third group consisted of sensitized animals that received compound suspended in vehicle per os at the time of KLH challenge.
For histologic analysis, representative skin specimens were fixed in 10% phosphate-buffered formalin, processed by routine histological techniques, cut at a thickness of […], and sections stained with hematoxylin and eosin.

| SMILES | inhibition at 10 µM [2] [%] | IC50 [1] [nM] | other results |
| --- | --- | --- | --- |
| Cn1[nH]c(=O)c(N)c1-c1ccccc1 [Example 5] | -23 to 48 | – | inhibition at 10 µM [1]: 90% |
| NC(=O)c1[nH]n(-c2ccc(Cl)cc2Cl)c(=O)c1N [Example 19] | – | 6240 | IC50 ([2]; unit inferred, read-out: Inhibition of MCP-1 mediated chemotaxis of CD3-Blast, IC50): 480 nM |
| Nc1c[nH]nc1O [Example 9] | – | 1650 | – |
| Cc1[nH][nH]c(=O)c1N [Example 10] | 25 to 27 | – | – |
| Nc1c(-c2ccncc2)[nH][nH]c1=O [Example 3] | 5 to 49 | – | inhibition at 10 µM [1]: 95% |
| COc1ccc(-c2[nH]nc(O)c2N)cc1 [Example 6] | – | 1490 | – |
| Nc1c(C2CCCCC2)[nH][nH]c1=O [Example 1, 4-Amino 5-Cyclohexyl-3-Pyrazolone] | 33 to 70 | 1270 | statistical significance of inhibition of T cell recruitment in rat DHR ([3]; 15 mg/kg per os at the time of antigen challenge): statistically significant inhibitory effect; inhibition of recruitment of 111In-labeled rat T cells to skin DHR sites ([3]; once per os at the time of antigen challenge, various doses (FIG. 3)): inhibited the recruitment of ^III In-labeled rat T cells to skin DHR sites in a dose-dependent fashion; inflammatory activity of skin sites (histology) [4]: attenuated in inflammatory activity; mononuclear cells infiltration in deep dermis (histology) [4]: reduced mononuclear cells infiltration in deep dermis |
| Cc1c(N)c(=O)n(-c2ccccc2)n1C [Example 13] | – | 2270 | – |
| Oc1[nH]nc2c1NCCC2 [Example 37] | – | 5640 | – |
| Nc1c(-c2ccccc2)n[nH]c1O [Example 4] | 58 to 61 | 730 | – |
